In patent US12564547B2, “Compositions, formulations, and methods for skin treatment” (Oddity Labs, LLC, priority 2022, dated 2026):

Legend:
Type in all cases: cell-based
human dermal fibroblasts = experiment: Human dermal fibroblast cells (hDFC) proliferation, cell viability assay (CellTiter-Glo, manual cell counting); conditions: hDFCs proliferation; control is DMSO
Nrf2-ARE pathway = experiment: KeratinoSens Nrf2-ARE reporter assay (ARE-luciferase activity); conditions: across a concentration range
Protocol: (§1) The safety/toxicology profiles of a compound or salt of the present disclosure was evaluated via a series of in vitro genotoxicity assays, including the SOS-chromotest to determine bacterial genotoxicity, and the TK.6 micronucleus assay to determine chromosomal damage and forward mutations. Standard reactive oxygen species (ROS) and caspase 3/7 assay were conducted to determine general cellular toxicity. Moreover, a series of sensitization tests were conducted to predict any potential skin sensitivity. These include the direct peptide reactivity assay to evaluate haptenization, the KeratinoSens reporter assay to determine any potential sensitivity via the activation of a cytoprotective pathway, and an immunological assay using human immature monocyte-derived dendritic cells to evaluate any potential immunogenicity.
The Nrf2-ARE pathway is a master regulator of cytoprotective responses to oxidative stress, and is an early indicator of skin sensitization. Nrf2 (nuclear factor erythroid 2-related factor) is a transcription factor that binds to antioxidant responsive elements (ARE). By fusing ARE to the light-producing luciferase gene, a KeratinoSens Nrf2-ARE reporter assay was constructed whereby luciferase signal is directly correlated to Nrf2-ARE pathway activation. […] FIG. 6B describes an in vitro dendritic cell sensitization test. Dendritic cell activation is widely-associated with downstream immunogenicity. CD14+ cells from human donor peripheral mononuclear cells were harvested and differentiated them into immature monocyte-derived DCs using granulocyte-macrophage colony-stimulating factor (GM-CSF) and interleukin-4 (IL-4), then treated with the lead compounds. Killed E. Coli and TNF-α were used as positive controls. FIG. 6C-FIG. 6E are example plots showing change in HLA-DR expression. Expression of CD80 (FIG. 6C), PDL-1 (FIG. 6D), and CD141 (FIG. 6E) as quantified via mean fluorescence intensity (MFI) following dosing with example compounds. […] In FIG. 6A-FIG. 6E, data represents mean±s.d. and representative of at least 2 experimental replicates.

TK.6 lymphoblasts = experiment: In vitro genotoxicity: TK.6 micronuclei assay (FIG. 5B) and SOS chromotest (FIG. 5C); conditions: TK.6 micronuclei assay without S9, 24 hr, and SOS chromotest; across a concentration range
Protocol: as §1
TK.6 lymphoblasts are a cell line used for gene mutation analyses. TK.6 lymphoblasts are heterozygous for the thymidine kinase gene (TK) and enable the detection of forward mutations and chromosomal damage, which manifests as micronuclei. TK.6 lymphoblasts are detectable via flow cytometry. TK.6 cells were dosed with the compounds or a vehicle control (0.1% v/v DMSO) and cultured without S9 metabolic activation for 24 hr. FIG. 5A-FIG. 5E show the results of in vitro genotoxicity assay and the TK.6 micronucleus assay. FIG. 5A are example plots of TK.6 cells treated with compound V-1. Methyl methanesulfonate, a genotoxic, alkylating agent was used as a positive control for micronuclei detection. […] The SOS chromotest is a bacteria-based test for genotoxicity. […] Cells were treated with either the compounds or vehicle control containing correspondingly % v/v-matched amounts of DMSO. High represents 10 µg/mL while low represents 1 μg/mL. Tested compounds elicited no or minor caspase 3/7 activation at low and high concentrations. In FIG. 5A-FIG. 5E, data represents mean±s.d. and representative of at least 2 experimental replicates.

| Compound | Activity (Percent Increase Proliferation of hFDPCs (%)) (human dermal fibroblasts) | skin sensitizing potential (Nrf2-ARE pathway activation) (Nrf2-ARE pathway) | genotoxic transformation potential (TK.6 lymphoblasts) |
| --- | --- | --- | --- |
| Cn1c(SCC(=O)N2CCCCCC2)nnc1-c1ccccc1 [I-1, 1-(azepan-1-yl)-2-[(4-methyl-5-phenyl-1,2,4-triazol-3-yl)sulfanyl]ethanone] | C (increased proliferation of hFDPCs equals to or larger than 4% and less than 8%) | did not exhibit apparent Nrf2-ARE pathway activation | mild genotoxicity at higher concentrations |
| CCCCC(=O)NCCc1ccc(OC)cc1 [II-1, N-[2-(4-methoxyphenyl)ethyl]pentanamide] | C (increased proliferation of hFDPCs equals to or larger than 4% and less than 8%) | did not exhibit apparent Nrf2-ARE pathway activation | mild genotoxicity at higher concentrations |
| COc1ccc(NC(=O)C(=O)NCCCn2ccnc2)cc1 [III-1, N-(3-imidazol-1-ylpropyl)-N′-(4-methoxyphenyl)oxamide] | D (increased proliferation of hFDPCs equals to or larger than 8%) | did not exhibit apparent Nrf2-ARE pathway activation | mild genotoxicity at higher concentrations |
| Cc1[nH]c2ccc(C(=O)NCC3CCCO3)cc2c1C (stereo not shown) [IV-1, 2,3-dimethyl-N-(oxolan-2-ylmethyl)-1H-indole-5-carboxamide] | C (increased proliferation of hFDPCs equals to or larger than 4% and less than 8%) | exhibited sensitizing potential | mild genotoxicity at higher concentrations |
| CN(C)C(=O)COC(=O)c1ccc2[nH]c3c(c2c1)CCCC3 [IV-2, [2-(dimethylamino)-2-oxoethyl] 6,7,8,9-tetrahydro-5H-carbazole-3-carboxylate] | B (increased proliferation of hFDPCs equals to or larger than 1% and less than 4%) | did not exhibit apparent Nrf2-ARE pathway activation | mild genotoxicity at higher concentrations |
| CCOCCCn1c(=O)[nH]c2ccccc2c1=O [V-1, 3-(3-ethoxypropyl)-1H-quinazoline-2,4-dione] | C (increased proliferation of hFDPCs equals to or larger than 4% and less than 8%) | did not exhibit apparent Nrf2-ARE pathway activation | did not exhibit any genotoxic transformation potential |
| CCNC(=O)CCSc1nc(C)cc(C)n1 [VII-19, 3-(4,6-dimethylpyrimidin-2-yl)sulfanyl-N-ethylpropanamide] | C (increased proliferation of hFDPCs equals to or larger than 4% and less than 8%) | – | – |
| CC(=O)NC1CCN(Cc2ccccc2N(C)C)CC1 [VII-20, N-[1-[[2-(dimethylamino)phenyl]methyl]piperidin-4-yl]acetamide] | D (increased proliferation of hFDPCs equals to or larger than 8%) | – | – |
| NC(=O)C1CCCCC1NC(=O)c1ccc(Cl)cn1 (stereo not shown) [VII-21, N-(2-carbamoylcyclohexyl)-5-chloropyridine-2-carboxamide] | D (increased proliferation of hFDPCs equals to or larger than 8%) | – | – |
| COc1ccccc1CN1CCNC(=O)C1CC(=O)N(C)C (stereo not shown) [VII-22, 2-[1-[(2-methoxyphenyl)methyl]-3-oxopiperazin-2-yl]-N,N-dimethylacetamide] | D (increased proliferation of hFDPCs equals to or larger than 8%) | – | – |
| CN(C)c1ccccc1CN1CCN(C(=O)N2CCOCC2)CC1 [VII-23, [4-[[2-(dimethylamino)phenyl]methyl]piperazin-1-yl]-morpholin-4-ylmethanone] | D (increased proliferation of hFDPCs equals to or larger than 8%) | – | – |
| CCn1c(NN)nc2ccccc2c1=O [VII-24, 3-ethyl-2-hydrazinylquinazolin-4-one] | D (increased proliferation of hFDPCs equals to or larger than 8%) | – | – |
| CCCNC(=O)CCNC(=O)C(C)Oc1ccc(OC)cc1 (stereo not shown) [VII-25, 2-(4-methoxyphenoxy)-N-[3-oxo-3-(propylamino)propyl]propanamide] | B (increased proliferation of hFDPCs equals to or larger than 1% and less than 4%) | – | – |
| CC(NC(=O)COc1ccc(CN(C)S(C)(=O)=O)cc1)c1ccccc1 (stereo not shown) [VII-26, 2-[4-[[methyl(methylsulfonyl)amino]methyl]phenoxy]-N-(1-phenylethyl)acetamide] | D (increased proliferation of hFDPCs equals to or larger than 8%) | – | – |
| CC(C)n1cnnc1 [VII-27, 4-propan-2-yl-1,2,4-triazole] | D (increased proliferation of hFDPCs equals to or larger than 8%) | – | – |
| CC(=O)OC(Cn1ccnc1)c1ccccc1 (stereo not shown) [VII-28, (2-imidazol-1-yl-1-phenylethyl) acetate] | A (increased proliferation of hFDPCs of less than 1%) | – | – |
| CCC(N)Cn1ccnc1 (stereo not shown) [VII-29, 1-imidazol-1-ylbutan-2-amine] | A (increased proliferation of hFDPCs of less than 1%) | – | – |
| CCOC(Cn1ccnc1)OCC [VII-30, 1-(2,2-diethoxyethyl)imidazole] | D (increased proliferation of hFDPCs equals to or larger than 8%) | – | – |
| COCCN(CCCc1ccccc1)C(=O)NC(C)Cn1ccnc1 (stereo not shown) [VII-31, 3-(1-imidazol-1-ylpropan-2-yl)-1-(2-methoxyethyl)-1-(3-phenylpropyl)urea] | A (increased proliferation of hFDPCs of less than 1%) | – | – |
| COc1ccc(CN2CCN(C(=O)CCn3ccnc3)CC2=O)cc1 [VII-32, 4-(3-imidazol-1-ylpropanoyl)-1-[(4-methoxyphenyl)methyl]piperazin-2-one] | A (increased proliferation of hFDPCs of less than 1%) | – | – |
| COc1ccc(CN2CCN(C(=O)Cn3ccnc3)CC2)cc1 [VII-33, 2-imidazol-1-yl-1-[4-[(4-methoxyphenyl)methyl]piperazin-1-yl]ethanone] | C (increased proliferation of hFDPCs equals to or larger than 4% and less than 8%) | – | – |
| COc1ccc(CCCc2nc3ccccc3[nH]2)cc1 [VII-34, 2-[3-(4-methoxyphenyl)propyl]-1H-benzimidazole] | D (increased proliferation of hFDPCs equals to or larger than 8%) | did not exhibit apparent Nrf2-ARE pathway activation | – |
| O=C(CSc1nnc(SCC(=O)N2CCCC2)s1)N1CCCC1 [VII-35, 2-[[5-(2-oxo-2-pyrrolidin-1-ylethyl)sulfanyl-1,3,4-thiadiazol-2-yl]sulfanyl]-1-pyrrolidin-1-ylethanone] | C (increased proliferation of hFDPCs equals to or larger than 4% and less than 8%) | – | – |
| O=C(CSc1nnnn1-c1ccc(O)cc1)N1CCCCC1 [VII-36, 2-[1-(4-hydroxyphenyl)tetrazol-5-yl]sulfanyl-1-piperidin-1-ylethanone] | D (increased proliferation of hFDPCs equals to or larger than 8%) | – | – |
| Cn1nnnc1SCC(=O)N1CCCCC1 [VII-37, 2-(1-methyltetrazol-5-yl)sulfanyl-1-piperidin-1-ylethanone] | C (increased proliferation of hFDPCs equals to or larger than 4% and less than 8%) | – | – |
| CCNC(=O)NC1CN(Cc2ccccc2N(C)C)C[C@@H]1OC (stereo partly drawn) [VII-38, 1-[(4S)-1-[[2-(dimethylamino)phenyl]methyl]-4-methoxypyrrolidin-3-yl]-3-ethylurea] | D (increased proliferation of hFDPCs equals to or larger than 8%) | – | – |
| oxetan-3-amine [VII-13] | D (increased proliferation of hFDPCs equals to or larger than 8%) | – | – |
